Reference: patent US20080305186A1, “Method and Composition for the Treatment of Cardiac Hypertrophy” (BOARD OF REGENTS, THE UNIVERSITY OF TEXAS SYSTEM, priority 2007, published 2008)

Tested on: cardiac gene expression
Test: Microarray analysis of cardiac gene expression (GeneChip Mouse Genome 430 2.0)
Assay type: in vivo, mice
Conditions: mouse heart, vs isoproterenol only (CH)
Protocol: Microarray Sample Preparation and Analysis. Animal hearts were rapidly removed, and the atria and right ventricles were cut and immediately plunged into TRIzol Reagent (Life Technologies). Total RNA was isolated following the manufacturer's instructions, purified by phenol-chloroform extraction and then ethanol precipitation, and 20 μg further processed for microarray analysis. Briefly, cDNA synthesis, in vitro transcription, and labeling and fragmentation to produce the oligonucleotide probes were performed as instructed by the GeneChip manufacturer (Affymetrix). The probes were first hybridized to a test array (Affymetrix) and then to the GeneChip Mouse Genome 430 2.0 Array, using the GeneChip Hybridization Oven 640. The chips were washed in a GeneChip Fluidics Station 450 (Affymetrix), and the results were visualized with a GeneChip G7 scanner (Affymetrix). RMA normalization, pairwise comparisons, Student's t test and Benjamini and Hochberg correction were subsequently performed using GeneSifter (VizX Labs, Seattle, Wash.) and Spotfire DecisionSite 8.3 (Spotfire, Inc., Somerville, Mass.).
Effects on Gene Expression Profile. […] One mouse heart was used for each array, and was performed in triplicate, generating a total of 12 arrays. GeneSifter was used to perform RMA normalization, pairwise comparisons of averaged signal intensity values, and Student's t-test with Benjamini and Hochberg correction, and Spotfire was used to perform pairwise comparisons. […] Additionally, genes that were altered between any two N or cardiac hypertrophy samples were removed, as these alterations most likely represented normal variations between mice.

C[C@H]1c2cccc(O)c2C(=O)C2=C(O)[C@]3(O)C(=O)C(C(N)=O)=C(O)[C@@H](N(C)C)[C@@H]3[C@@H](O)[C@@H]21 [doxycycline]
FC cDNA, BG075321 (CH vs normal 2.2): −2.5 fold | FC cDNA, BG919470 (CH vs normal 2.2): −2.0 fold | FC A disintegrin-like and metallopeptidase (reprolysin type) with thrombospondin (ADAMTS)-like 2 (Adamtsl2), AK020831 (CH vs normal 2.3): −1.8 fold | FC CCAATenhaer binding protein (CEBP), beta (Cebpb), NM_009883 (CH vs normal 2.3): −1.9 fold | FC cDNA, BB248249 (CH vs normal 2.3): −2.1 fold | FC cDNA, BB258019 (CH vs normal 2.3): −2.3 fold | FC cDNA, BB272245 (CH vs normal 2.3): −1.6 fold | FC cDNA, BC003209 (CH vs normal 2.3): −2.1 fold | FC cDNA, BF466929 (CH vs normal 2.3): −2.8 fold | FC Apical protein, Xenopus laevis-like (Apx1), BQ176992 (CH vs normal 2.4): −1.7 fold | FC Purine-nucleoside phosphorylase (Pnp), BC003788 (CH vs normal 2.4): −2.0 fold | FC cDNA, BB398891 (CH vs normal 2.4): −2.2 fold | FC cDNA, BC027342 (CH vs normal 2.4): −2.8 fold | FC ATP-binding cassette, sub-family G (WHITE), member 2 (Abcg2), NM_011920 (CH vs normal 2.5): −1.7 fold | FC Angiogenin, ribonuclease A family, member 1 (Ang1), NM_007447 (CH vs normal 2.5): −2.1 fold | FC ESTs, AI447357 (CH vs normal 2.5): −2.5 fold | FC cDNA, BB787946 (CH vs normal 2.5): −2.3 fold | FC cDNA, BE956940 (CH vs normal 2.5): −2.2 fold | FC cDNA, BG065702 (CH vs normal 2.5): −2.5 fold | FC Casitas B-lineage lymphoma b (Cblb), BB205662 (CH vs normal 2.6): −2.1 fold | FC Cysteine proteinase cathepsin L (Ctsl), J02583 (CH vs normal 2.6): −2.1 fold | FC Dipeptidase 1 (Dpep1), NM_007876 (CH vs normal 2.6): −2.3 fold | FC Fc fragment of IgG, low affinity IIIa, receptor (Fcrl3), BC027310 (CH vs normal 2.6): −2.7 fold | FC cDNA, AV234245 (CH vs normal 2.6): −1.8 fold | FC cDNA, AW552579 (CH vs normal 2.6): −2.4 fold | FC Bcl2-like (Bcl211), BM228788 (CH vs normal 2.7): −1.9 fold | FC Ceruloplasmin (Cp), NM_007752 (CH vs normal 2.7): −1.7 fold | FC G7e protein, NM_033075 (CH vs normal 2.7): −2.2 fold | FC Mitogen activated protein kinase kinase kinase 8 (Map3k8), NM_007746 (CH vs normal 2.7): −3.0 fold | FC cDNA, BB200607 (CH vs normal 2.7): −2.7 fold | FC cDNA, BC019553 (CH vs normal 2.7): 1.7 fold | FC cDNA, BG071024 (CH vs normal 2.7): −2.8 fold | FC cDNA, BQ174442 (CH vs normal 2.7): −2.2 fold | FC cDNA, AV365503 (CH vs normal 2.8, first AV365503 line): −3.0 fold | FC Carbonic anhydrase 4 (Car4), NM_007607 (CH vs normal 2.8, second NM_007607 line): −4.3 fold | FC ChaC, cation transport regulator-like 1 (Chac1), BC025169 (CH vs normal 2.9): −2.6 fold | FC Decorin (Dcn), AV321547 (CH vs normal 2.9): −2.0 fold | FC Glycoprotein (transmembrane) nmb (Gpnmb), NM_053110 (CH vs normal 2.9): −2.0 fold | FC cDNA, BC004065 (CH vs normal 2.9): −3.1 fold | FC cDNA, BC020080 (CH vs normal 2.9): −3.4 fold | FC Amyotrophic lateral sclerosis 2 (juvenile) chromosome region, candidate 13 (Als2cr13), AV326938 (CH vs normal 3.0): −1.6 fold | FC Chromodomain protein, Y chromosome-like (Cdyl), NM_009881 (CH vs normal 3.0): −2.0 fold | FC C-type lectin domain family 1, member a (Clec1a), BB035924 (CH vs normal 3.1): −2.2 fold | FC Casitas B-lineage lymphoma b (Cblb), AW545867 (CH vs normal 3.1): −2.1 fold | FC Prostaglandin D synthetase (Ptdgs), AB006361 (CH vs normal 3.1): −2.3 fold | FC cDNA, AA939619 (CH vs normal 3.1): −3.1 fold | FC cDNA, AI790538 (CH vs normal 3.1): −2.0 fold | FC Carbonic anhydrase 4 (Car4), NM_007607 (CH vs normal 3.1, first NM_007607 line): −5.2 fold | FC cDNA, AV365503 (CH vs normal 3.1, second AV365503 line): −2.8 fold | FC CUB and zona pellucida-like domains 1 (Cuzd1), NM_008411 (CH vs normal 3.2): −1.7 fold | FC Chemokine (C—C motif) ligand 6 (Cc16) (MRP-1), BC002073 (CH vs normal 3.2): −1.9 fold | FC G7e protein, BC027314 (CH vs normal 3.2): −3.1 fold | FC Serine (or cysteine) peptidase inhibitor, clade A, member 3G (Serpina3g), BC002065 (CH vs normal 3.2): −3.6 fold | FC cDNA, AV084904 (CH vs normal 3.2): −1.7 fold | FC cDNA, AV369812 (CH vs normal 3.2): −2.5 fold | FC cDNA, BB829165 (CH vs normal 3.2): −3.1 fold | FC cDNA, BG297038 (CH vs normal 3.2): −3.3 fold | FC cDNA, NM_133898 (CH vs normal 3.2): −3.3 fold | FC Angiogenin, ribonuclease A family, member 1 (Ang1), AI385586 (CH vs normal 3.2, first AI385586 line): −2.1 fold | FC Pyruvate dehydrogenase kinase 4 (Pdk4), NM_013743 (CH vs normal 3.3): −3.1 fold
